Reference: patent publication US20200383327A1, “METHOD OF IMPROVING PLANT PERFORMANCE” (The State of Israel, Ministry of Agriculture & Rural …, priority 2018, published 2020)
“Also recorded” adds a separate entry of the source.

What was measured:
Assay type in all cases: in vivo
[1] = Strawberry fruit decay after pre-harvest treatment; conditions: 1-4 mM solution 3 weeks pre-harvest, FIG. 18
Experimental: FIG. 18 is a graph showing the effect of Phe solution on fruit pre-harvest decay. […] Decay was monitored and documented over a period of 12 days.
Strawberry plants were treated with 1-4 mM solution 3 weeks pre-harvest.

[2] = tested on: Colletotrichum gloeosporioides; experiment: Postharvest decay of 'Shelly' mango fruit, wound inoculated; conditions: for Inhibition of pathogenic activity: postharvest, mango
Experimental: (§1) FIGS. 4A-4B are graphs showing induced resistance of harvested Mango fruit to fungal pathogens. FIG. […] A day later the treated or untreated fruits were wound inoculated on four spots in each fruit with 7 μl of Lasiodiplodia theobromas conidia suspension (10^6 conidia/ml) and the decay area was monitored for 7 days post inoculation (dpi). FIG. […] A day later the treated or untreated fruits were wound inoculated on four spots in each fruit with 7 μl of Colletotrichum gloeosporioides conidia suspension (10^6 conidia/ml) and the decay area was monitored for 14 days post inoculation (dpi).

Lasiodiplodia theobromae = experiment: as above; conditions: for Inhibition of pathogenic activity: postharvest, mango
Experimental: as §1

[3] = Number of flowers and stigmas of Petunia plants
Experimental: FIGS. 22A-22C are vertical bar graphs showing the effect of Phe solution on the number of flowers per plant. Petunia plants were treated once a week for 5 weeks with Phe solution (2 mM, 6 mM, 15 mM, 35 mM, or none, i.e., control). Numbers of flowers were counted and documented over a period of 7 weeks for Petunia ‘easy-rider’ strain (FIG. 22A) and Petunia ‘white dreams’ strain (FIG. 22B).

Tuta absoluta = experiment: Tomato leaf miner damage on tomato plants, natural infestation in greenhouse
Experimental: FIGS. 3A-3E are images and bar graphs showing the effect of 4 mM of phenylalanine applied by drenching or spraying on the severity of […] in tomato, 13 days post treatment. FIG. 3A—an image showing the damage caused by the tomato leaf miner, the insect moth Tuta absoluta on tomato leaflet. FIG. 3B—a vertical bar graph showing severity of damage of Tuta absoluta on tomato leaves treated with drench or spray of 4 mM solution phenylalanine. Disease was evaluated on a 0-100% severity of symptoms coverage and calculation of area under disease progress curve (AUDPC) 13 days after treatment. […] Symptoms incidence per plant was evaluated 30 days after treatment. […] FIG. 3C—a vertical bar graph showing the effect of 4 mM Phe solution on the incidence of tomato leaf miner on tomato plants. The Phe solution was applied by spraying and by drench on the tomato plants at 3 days before and 4 hours before incubation in the greenhouse. Infection was natural. FIG. 3D—a vertical bar graph showing the effect of 4 mM Phe solution on the incidence of tomato leaf miner on tomato plants. The Phe solution was applied by spraying and by drench on the tomato plants at 3 days before and 4 hours before incubation in the greenhouse. Infection was natural. Symptoms incidences per plant at large size and at smaller size (up to 1 cm) were evaluated 30 days after treatment. […] FIG. 3E—a vertical bar graph showing the effect of 4 mM Phe solution on the rate of tomato leaf miner symptoms on tomato plants. The Phe solution was applied by spraying and by drench on the tomato plants at 3 days before and 4 hours before incubation in the greenhouse. Infection was natural. Symptoms incidences per plant at large size and at smaller size (up to 1 cm) were evaluated 30 days after treatment and the percent of large symptoms was calculated.
Tomato plants were grown in pots in a nonheated greenhouse where temperatures were 17-32° C. […] Damage of the pest was evaluated according to a 0-100% severity scale where 0=no symptoms followed by a calculation of area under disease progress curve (AUDPC) 13 days after treatment.

Anthracnose = Anthracnose incidence on harvested avocado after orchard flowering spray; conditions: application during orchard flowering; stored at ambient temperature for 14 days; FIG. 23
Description: FIGS. 23A-C: Effect of flowering application on disease incidence. Avocado and Mango cv. ‘Kent’ orchards were sprayed with fungicide (Pyrimethanil+Fludioxonil) or with phenylalanine during flowering. (FIG. 23A). Powdery Mildew incidence (percentage) per inflorescence in mango orchard. (FIG. 23B). Anthracnose incidence (percentage) on harvested mango stored at ambient temperature for 12 days. (FIG. 23CB). Anthracnose incidence (percentage) on harvested avocado stored at ambient temperature for 14 days.
Flowering is one of the more susceptible organs of the tree. Pathogenic fungi can penetrate during flowering and either infect the flower (e.g., powdery mildew) or endophytically colonize the stem and the fruit without causing any visible symptoms. Those fungi (e.g. Colletotrichum and Lasiodiplodia) become active during abiotic stress or during fruit ripening and cause fruit stem-end rot and anthracnose.

Alternaria alternata = experiment: Postharvest decay of 'Ettinger' avocado fruit, wound inoculated; conditions: 4 mM phenylalanine, FIG. 5
Experimental: FIGS. 5A-5B are a graph and a photograph showing induced resistance of harvested Avocado fruit to fungal pathogens. FIG. […] A day after dipping the treated or untreated fruits were wound inoculated on four spots in each fruit with 7 μl of Alternaria alternata conidia suspension (10^6 conidia/ml) and the decay area was monitored for 6 days post inoculation (dpi). FIG. 5B is representative pictures of inoculated fruits of control and treatments with 4 mM phenylalanine, 6 days post inoculation.

Oidium neolycopersici = experiment: Oidium powdery mildew on tomato plants; conditions: 24 days after treatment
Experimental: The Phe (P) solution was applied by spraying and by drench on the tomato plants at 3 days before and 4 hours before incubation in the greenhouse. Incidence of Oidium powdery mildew was evaluated 24 days after treatment. […] The Phe and shatakh 90 solutions were applied by spraying on the tomato plants at 3 days before and 4 hours before incubation in the greenhouse. Incidence of Oidium powdery mildew was evaluated 24 days after treatment.
Conidia of Oidium neolycopersici were collected from leaves of a diseased plant, suspended in water and sprayed on the tomato plants. The plants were kept in a greenhouse with 18-28° C. Disease severity of Oidium powdery mildew was evaluated on a scale of 0-100% where 100=whole canopy covered by disease symptoms.

[4] = postharvest treatment of 'Shelly' mango, FIG. 4

N[C@@H](Cc1ccccc1)C(=O)O [Phe, Phenylalanine]
Amount of rotten fruits (decay incidence) [1]: substantially reduced amount of rotten fruits | Inhibition of pathogenic activity ([2]; 2 mM phenylalanine): did not suffice | Inhibition of pathogenic activity ([2]; 4 mM phenylalanine): substantially inhibited the pathogenic activity | Decay severity in comparison to the untreated control fruits [2, 4]: reduced the decay severity | Inhibition of pathogenic activity (Lasiodiplodia theobromae; 2 mM phenylalanine): did not suffice | Inhibition of pathogenic activity (Lasiodiplodia theobromae; 4 mM phenylalanine): substantially inhibited the pathogenic activity | Decay severity in comparison to the untreated control fruits (Lasiodiplodia theobromae; [4]): reduced the decay severity | Number of flowers ([3]; Phe solution once a week for 5 weeks vs control, FIGS. 22A-22B): more flowers | Number of stigmas ([3]; Phe solution vs control, FIG. 22C): more flowers and stigmas; also recorded: more stigmas compared to control | Severity of damage of the moth Tuta absoluta leaf miner on tomato leaves (Tuta absoluta; 4 mM Phe solution, drench or spray, each treatment, FIG. 3C): significantly suppressed | Leaf miner symptoms, small (up to 1 cm long) and large (Tuta absoluta; 4 mM Phe spray and Phe drench, 30 days after treatment, FIG. 3D): suppressed | Rate (in %) of larger leaf miner symptoms (Tuta absoluta; 4 mM Phe spray and drench, 30 days after treatment, FIG. 3E): reduced | Postharvest anthracnose in avocado (Anthracnose): reduced | Decay severity in comparison to the untreated control fruits (Alternaria alternata): reduced the decay severity | Severity of Oidium powdery mildew on tomato leaves (Oidium neolycopersici; 4 mM Phe solution, drench or spray, each treatment, FIG. 11A): significantly suppressed | Severity of Oidium powdery mildew on tomato leaves (Oidium neolycopersici; spray, 4 mM Phe, 0.1% Shatah 90, or combination, FIG. 11B): significantly suppressed
